Blank lines part the entries; values can stand above or below the compound they belong to.
Tests used:
Type in all cases: protein assay
Mushroom tyrosinase [1] = target: T1, Mushroom tyrosinase (Agaricus bisporus, UniProt O42713+Q00024+C7FF04+C7FF05); test: Inhibition of mushroom tyrosinase incubated for 10 mins by spectrophotometric analysis
Mushroom tyrosinase [2] = target: T1, Mushroom tyrosinase; test: Inhibition of mushroom tyrosinase using L-DOPA as substrate pre-treated for 20 mins followed by substrate addition measured for 15 mins by absorbance based analysis
Mushroom tyrosinase [3] = target: T1, Mushroom tyrosinase; test: Inhibition of mushroom tyrosinase using L-tyr as substrate
Mushroom tyrosinase [4] = target: T1, Mushroom tyrosinase; test: Inhibition of mushroom tyrosinase using L-DOPA as substrate incubated for 20 mins spectrophotometric analysis
Mushroom tyrosinase [5] = target: T1, Mushroom tyrosinase; test: Inhibition of mushroom tyrosinase using L-tyrosine as substrate incubated for 20 mins by spectrophotometric analysis
Mushroom tyrosinase [6] = target: T1, Mushroom tyrosinase; test: Binding affinity to mushroom tyrosinase assessed as binding constant by fluorescence spectrophotometry
Mushroom tyrosinase [7] = target: T1, Mushroom tyrosinase; test: Inhibition of mushroom tyrosinase using L-DOPA as substrate preincubated for 10 mins

SMILES: Oc1ccc2c(c1)OCO2
IC50 (Mushroom tyrosinase [2]): 6700 nM

SMILES: COc1ccc(C=O)cc1O [ISOVANILLIN]
IC50 (Mushroom tyrosinase [3]): > 500000 nM

SMILES: O=c1cc(Cn2cc(COc3cccc4ccccc34)nn2)occ1O
IC50 (Mushroom tyrosinase [4]): 60 nM

The remaining lines, values ahead:

IC50 (Mushroom tyrosinase [1]): 520 nM
SMILES: O=c1cc(Cn2cc(COc3ccc([N+](=O)[O-])cc3)nn2)occ1O

IC50 (Mushroom tyrosinase [4]): 300 nM
SMILES: O=c1cc(Cn2cc(COc3ccc4ccccc4c3)nn2)occ1O

IC50 (Mushroom tyrosinase [5]): 33330 nM
SMILES: C/C=C/c1ccc(O)c(OC)c1

Ki (Mushroom tyrosinase [6]): 18 nM
IC50 (Mushroom tyrosinase [7]): 98 nM
SMILES: O=C(CSc1nnc(-c2ccccc2F)n1-c1ccc(F)cc1)Nc1ccc(F)cc1

Reference: ChEMBL document CHEMBL5518158, “Recent advances in triazoles as tyrosinase inhibitors” (Eur J Med Chem, 2023)
